4 compounds from ChEMBL document CHEMBL1201862, “PubChem BioAssay data set” (2004) can be followed below.

The source made the active and inactive calls.

The target in experiment [1] is T1, Apoptotic protease-activating factor 1 (Homo sapiens, UniProt O14727).
T1 sequence (O14727 whole entry): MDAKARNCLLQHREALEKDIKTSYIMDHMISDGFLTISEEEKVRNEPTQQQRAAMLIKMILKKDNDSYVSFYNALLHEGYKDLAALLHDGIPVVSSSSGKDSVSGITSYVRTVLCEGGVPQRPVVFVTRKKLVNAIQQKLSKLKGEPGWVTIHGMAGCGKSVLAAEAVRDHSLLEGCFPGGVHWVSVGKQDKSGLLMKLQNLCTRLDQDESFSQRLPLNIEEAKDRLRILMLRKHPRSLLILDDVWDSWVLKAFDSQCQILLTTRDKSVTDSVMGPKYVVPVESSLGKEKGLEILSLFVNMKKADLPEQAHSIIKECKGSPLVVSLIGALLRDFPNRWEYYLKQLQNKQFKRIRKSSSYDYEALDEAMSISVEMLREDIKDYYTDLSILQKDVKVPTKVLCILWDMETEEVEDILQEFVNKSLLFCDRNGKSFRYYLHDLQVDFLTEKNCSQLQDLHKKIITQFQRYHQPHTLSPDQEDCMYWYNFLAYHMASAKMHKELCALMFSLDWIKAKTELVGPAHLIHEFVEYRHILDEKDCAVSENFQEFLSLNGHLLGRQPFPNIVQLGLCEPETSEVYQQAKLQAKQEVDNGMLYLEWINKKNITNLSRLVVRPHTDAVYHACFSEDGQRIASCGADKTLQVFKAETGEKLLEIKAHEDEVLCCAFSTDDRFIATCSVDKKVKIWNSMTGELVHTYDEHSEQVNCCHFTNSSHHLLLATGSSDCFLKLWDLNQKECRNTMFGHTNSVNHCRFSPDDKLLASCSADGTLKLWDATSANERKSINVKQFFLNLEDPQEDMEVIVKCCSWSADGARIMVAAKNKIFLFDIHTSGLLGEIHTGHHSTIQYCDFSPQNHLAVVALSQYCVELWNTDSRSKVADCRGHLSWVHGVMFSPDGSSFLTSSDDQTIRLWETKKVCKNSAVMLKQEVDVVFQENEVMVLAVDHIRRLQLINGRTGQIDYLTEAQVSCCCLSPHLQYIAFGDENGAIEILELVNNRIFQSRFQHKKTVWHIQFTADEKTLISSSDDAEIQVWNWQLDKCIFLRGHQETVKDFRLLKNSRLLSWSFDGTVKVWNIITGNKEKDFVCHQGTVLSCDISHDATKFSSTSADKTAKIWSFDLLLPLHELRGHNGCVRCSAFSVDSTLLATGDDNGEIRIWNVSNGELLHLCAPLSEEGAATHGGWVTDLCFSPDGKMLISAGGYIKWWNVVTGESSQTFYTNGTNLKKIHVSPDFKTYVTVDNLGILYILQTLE
The format is functional.

Experiment [2] concerns the target Small ubiquitin-related modifier 1 (Homo sapiens, UniProt P63165). In words: SUMO1 protein interaction blockers, potency – biochemical, fluorescence polarization, uHTS hits, dose response (AID 624382). The format is functional. The settings on record: read-out: IC50_Mean. (Polarisation of emitted light reports the rotation of a fluorescent probe.)
In experiment [3] the target is T2, Dual specificity protein phosphatase 6 (Rattus norvegicus, UniProt Q64346).
T2 sequence (Q64346 whole entry): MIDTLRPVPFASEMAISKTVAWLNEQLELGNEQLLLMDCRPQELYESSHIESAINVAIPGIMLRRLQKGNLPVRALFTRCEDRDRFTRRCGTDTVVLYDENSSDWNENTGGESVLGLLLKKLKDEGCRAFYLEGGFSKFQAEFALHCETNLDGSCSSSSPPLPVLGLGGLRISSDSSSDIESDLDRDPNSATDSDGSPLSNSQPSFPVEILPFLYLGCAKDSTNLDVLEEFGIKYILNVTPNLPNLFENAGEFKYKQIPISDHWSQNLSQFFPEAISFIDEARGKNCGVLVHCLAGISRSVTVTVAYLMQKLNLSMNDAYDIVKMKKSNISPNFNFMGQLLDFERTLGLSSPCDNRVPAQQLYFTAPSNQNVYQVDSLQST
It counts as functional.

Experiment [4] deals with T2, Dual specificity protein phosphatase 6. In words: inhibition of rat DUSP6 enzyme activity – biochemical, in vitro, primary screen (AID 425).
In experiment [5] the target is T3, Tyrosine-protein phosphatase non-receptor type 11 (Homo sapiens, UniProt Q06124).
T3 sequence (Q06124 whole entry): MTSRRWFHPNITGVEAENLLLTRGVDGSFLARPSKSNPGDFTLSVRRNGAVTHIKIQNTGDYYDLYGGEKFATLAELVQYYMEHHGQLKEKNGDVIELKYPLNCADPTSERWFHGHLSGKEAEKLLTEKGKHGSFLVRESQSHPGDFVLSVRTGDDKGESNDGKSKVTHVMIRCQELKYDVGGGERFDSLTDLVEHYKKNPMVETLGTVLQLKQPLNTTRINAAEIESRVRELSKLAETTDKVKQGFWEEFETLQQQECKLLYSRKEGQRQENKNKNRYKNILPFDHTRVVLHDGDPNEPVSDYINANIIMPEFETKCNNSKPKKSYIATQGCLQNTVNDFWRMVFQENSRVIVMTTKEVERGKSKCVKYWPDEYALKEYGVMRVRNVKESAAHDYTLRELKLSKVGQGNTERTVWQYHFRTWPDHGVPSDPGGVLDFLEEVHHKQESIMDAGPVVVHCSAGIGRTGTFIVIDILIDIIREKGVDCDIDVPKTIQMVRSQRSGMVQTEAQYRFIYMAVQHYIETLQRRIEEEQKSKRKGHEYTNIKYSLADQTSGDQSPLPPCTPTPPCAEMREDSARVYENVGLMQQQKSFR
In words: PTPN11 enzyme inhibitors – biochemical, selectivity assay for STEP inhibitor project, dose response (AID 602367). The format is functional. The settings on record: read-out: IC50_Mean.

Experiment [6] deals with Dual specificity protein phosphatase 3 (Homo sapiens, UniProt P51452). In words: SAR VHR1 absorbance Assay for In Vitro dose response studies. [Related pubchem assays (depositor defined):AID1654, AID1661, AID1878, AID1992, AID2004].
For another experiment, the system named is HEK293. In words: optical interference in Abeta FP readout, dose response, artefact control for IDE activator project, biochemical, fluorescence polarization (AID 588442). The format is functional, cell-based. The settings on record: Homo sapiens.
For experiment [7], the target named is T4, Tyrosyl-DNA phosphodiesterase 2 (Homo sapiens, UniProt O95551).
T4 sequence (O95551 whole entry): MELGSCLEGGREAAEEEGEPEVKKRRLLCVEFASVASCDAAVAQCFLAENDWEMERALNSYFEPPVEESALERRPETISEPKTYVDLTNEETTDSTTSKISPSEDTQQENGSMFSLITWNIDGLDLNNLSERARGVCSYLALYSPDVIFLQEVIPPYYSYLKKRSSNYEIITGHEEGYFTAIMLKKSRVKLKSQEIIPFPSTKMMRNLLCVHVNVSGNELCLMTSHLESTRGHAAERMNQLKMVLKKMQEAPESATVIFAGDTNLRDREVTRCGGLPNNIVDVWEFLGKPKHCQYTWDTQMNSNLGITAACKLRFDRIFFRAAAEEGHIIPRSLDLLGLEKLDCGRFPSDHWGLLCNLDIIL
In words: potency against TDP2 phosphodiesterase activity – biochemical, epi absorbance, IC50, dose response (AID 743297).

By EC50 is commonly meant the concentration giving half of the maximal effect.

Sequence of Dual specificity protein phosphatase 3 (P51452 whole entry): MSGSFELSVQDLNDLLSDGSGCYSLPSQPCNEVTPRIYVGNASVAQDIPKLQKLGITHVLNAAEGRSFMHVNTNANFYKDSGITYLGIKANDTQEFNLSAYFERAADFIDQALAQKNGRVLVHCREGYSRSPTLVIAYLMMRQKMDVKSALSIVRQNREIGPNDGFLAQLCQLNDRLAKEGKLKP
Sequence of Small ubiquitin-related modifier 1 (P63165 whole entry): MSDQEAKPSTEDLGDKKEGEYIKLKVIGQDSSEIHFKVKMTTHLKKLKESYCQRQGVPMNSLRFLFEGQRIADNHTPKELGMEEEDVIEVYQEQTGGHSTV

As for `CCOC(=O)c1ccc(Nc2cc3ccccc3c(O)n2)cc1`, the IC50 in experiment [1] is 8.78 µM (active).

`CCOC(=O)c1sc2nc3c(SCC(=O)O)cc(C(=O)c4ccccc4O)cn3c(=O)c2c1C`: the IC50 was > 66.6 µM (inactive) in experiment [2]; 57.3 µM (active) in experiment [3]; 103 µM (not active) in experiment [4]; 1.08 µM (active) in experiment [5]; 1.24 µM (active) in experiment [6].

In the case of `O=c1oc2c(O)cccc2cc1-c1nc2ccccc2[nH]1`, in the experiment on HEK293, the EC50 was > 54.7 µM (inactive).

As for `C=CCn1c(NC(=O)c2ccccc2Cl)c(C#N)c2nc3ccccc3nc21`, the IC50 in experiment [7] was > 128 µM (inactive); in experiment [4], > 100 µM (not active); in experiment [1] it was 13.7 µM (active).
